Drawing on the pKa sets of Baltruschat and Czodrowski (2020), this text covers pKa for 136 molecules.

Where a SMILES comes first, the peptide text is derived from it.

In general, pKa refers to the negative logarithm of the acid dissociation constant.

Molecule `CC(=O)C(C)C(=O)c1ccccc1` (stereo not drawn) had a pKa (acidic group) of 11.1. In the case of `Nc1ccc2cc3ccccc3nc2c1`, the pKa (basic group) is 8.04.

`O=NCC(=O)c1ccncc1` displayed a pKa (acidic group) of 7.8. The molecule `O=C(O)[C@H]1CCCC[C@@H]1O` showed a pKa (acidic group) of 4.68. Where the note is “basic group”, `c1ccc(CN2CCCC2)cc1` displayed a pKa of 9.51. For the setting “acidic group”, `Oc1c(Cl)cc(Cl)cc1C[NH+]1CCCCC1` came in with a pKa of 5.97. The molecule `COc1ccc(-c2cnc(-c3ccccc3)o2)cc1` had a pKa (basic group) of 1.05.

In turn, `Nc1nnnn1CC(=O)O` showed a pKa (acidic group) of 2.38.

Consider `ONc1ccccc1`, for which the pKa by setting is: (acidic group) 10.7; (basic group) -0.32. `Nc1ccc(S(=O)(=O)Nc2cnc(Cl)nc2)cc1`: the pKa (acidic group) stood at 5.8. Molecule `NCC(=O)NCC(=O)NCC(=O)N1CCC[C@H]1C(=O)[O-]` (H-GGGP-OH) yielded a pKa (basic group) of 8.04. For the setting “basic group”, `CCN(Cl)CC` gave a pKa of 1.02. On to `[O-]c1cc([O-])cc(O)c1`, for which the pKa (acidic group) was found to be 14.1.

Consider `O=C(O)c1csc2ccccc12`, for which the pKa (acidic group) came out at 4.24. With `O=C(Cc1cnccn1)c1ccccc1`, the pKa (basic group) amounted to 0.33.

`O=C1CCC(=O)C1=O` returned a pKa (acidic group) of 8.48. In turn, `CN[C@H]1C[C@]1(C)[NH2+]C` returned a pKa (basic group) of 5.52. For `CCc1ccccn1`, the pKa (basic group) was 5.98. On the same count and under the same terms, the value for `CCCNc1c2ccccc2nc2cccc([N+](=O)[O-])c12` was 7.2.

As for `Cc1cc(C)[nH]n1`, the pKa reads like this: (acidic group) 15; (basic group) 4.32. For the setting “acidic group”, `Nc1n[nH]cc1[N+](=O)[O-]` yielded a pKa of 9.73. For `COc1ccc(/C=N/O)cc1`, for the setting “acidic group”, the pKa stood at 11. Take `Cc1ccccc1C(=NCC[NH+](C)C)c1ccccc1C`: under “basic group”, the pKa came to 2.82. Turning to `CC(=O)c1ccc([O-])c(CN(C)C)c1`, the pKa (basic group) was 10. Regarding `CN(C)Cc1cc(CC(C)(C)C)ccc1O`, the pKa (acidic group) turned out to be 11.5.

As to `Cc1cc(I)ccc1C(=O)O`, under “acidic group”, the pKa amounted to 3.79. `CCOC(=O)COc1ccc(Oc2ccc(O)c(C[NH3+])c2)c(Cl)c1Cl` returned a pKa (acidic group) of 8.55. `O=[N+]([O-])c1ccc([O-])c(CN2CCOCCOCCOCCOCC2)c1` registered a pKa (basic group) of 9.69. The same measure, in the same setting: the value for `Cc1ccc(/N=N/c2ccc(N)cc2)cc1` was 3.04. Same read-out and setting: the value for `Cc1cc(N)ccc1-c1ccc([NH3+])cc1C` was 3.7. For the molecule `CCOc1nccc([O-])n1`, the pKa (basic group) is 8.2.

With `O=C([O-])C1CCN1` (stereo not drawn), the pKa (basic group) amounted to 9.54. The same measure, in the same setting: the value for `CCCCCCCN` was 10.3; that for `Cc1cccc(C)c1NC(=O)CN1CCCCC1` was 7.6; that for `CCCc1ccc([C@@H]2CCC[NH+]2C)cn1` was 3.65. The same measure, in the same setting: the value for `C[C@@H]([C@H](O)c1ccccc1)N(C)C` was 9.22.

For `CC[NH+](CC)Cc1cccc(F)c1O`, the pKa (acidic group) was 7.26. For `Cc1ccc(O)cc1[N+](C)(C)C`, the pKa (acidic group) was 8.28.

`Cc1cc(C(=O)O)ccc1[N+](=O)[O-]` yielded a pKa (acidic group) of 3.65. On to `CCNN(C)C`, for which the pKa (basic group) was determined as 6.58. As to `O=C([O-])c1cc([N+](=O)[O-])ccc1O`, the pKa (acidic group) came to 10.1.

The molecule `O=C([O-])c1cccnc1` displayed a pKa (basic group) of 4.83.

For `Nc1nc(N)c2cnn(-c3ccccc3)c2n1`, the pKa (basic group) is 4.49. In the case of `CNC(C)Cc1ccccc1` (stereo not drawn), the pKa (basic group) came to 9.87. Where the note is “basic group”, `Cc1cc2c(C)ccnc2c2ncccc12` returned a pKa of 5.71. Molecule `Cc1ccc(OCC(=O)N[C@H]2C(=O)N3[C@H]2SC(C)(C)[C@H]3C(=O)O)cc1` showed a pKa (acidic group) of 2.8. Regarding `Nc1cc[nH+]c2c1ncn2CCOCP(=O)(O)O`, the pKa reads like this: (acidic group) 1.11; (basic group) 0.05.

With `CC(=O)c1ccc(Cl)cc1`, where the note is “acidic group”, the pKa was 18.1. `[S-]c1ccnc2ccccc12` came in with a pKa (basic group) of 8.83. As for `[S-]c1ncnc2nc[nH]c12`, the pKa is, setting by setting: (acidic group) 10.9; (basic group) 7.74. In the case of `O=C([O-])c1cccc2cc3ccccc3nc12`, the pKa (basic group) is 7.72. For `[NH3+]C(Cc1ccc[nH+]c1)C(=O)O` (stereo not drawn), the pKa (acidic group) turned out to be 1.69. For the setting “basic group”, `CCc1ccc(/N=N/c2ccc(N(C)C)cc2)cc1CC` registered a pKa of 2.58.

In the case of `CC(=O)c1ccccc1`, the pKa (basic group) was 18.3. With `CCCCCCCCCCc1c(-c2ccccc2)n[nH]c1O`, the pKa (acidic group) amounted to 11. The molecule `Cc1ccn(-c2cccc[nH+]2)n1` displayed a pKa (basic group) of -3.9. Same read-out and setting: the figure for `c1ccc(-n2cccn2)[nH+]c1` is -4.8.

Turning to `c1ccc(-c2ccc3nc(C[NH+]4CCOCC4)cn3n2)cc1`, under “basic group”, the pKa amounted to 1.4.

In turn, `CCc1c(-c2ccccc2)nn(C2CC[NH+](C)CC2)c1O` gave a pKa (acidic group) of 5.9. As for `CC(=O)N(N)C1CCN(C)CC1`, the pKa (basic group) amounted to 8.7. In turn, `C[N+](C)(C)[CH2][Sn]([CH3])([CH3])[CH3]` returned a pKa (acidic group) of 10.6. With `CNCCNCCN`, where the note is “basic group”, the pKa came out at 10.2. Molecule `Nc1cccc2nc3ccccc3cc12` displayed a pKa (basic group) of 6.04.

Take `Cc1c(Cn2cc[nH+]c2)sc2ccc(C(=O)O)cc12`: the pKa (acidic group) worked out at 3.82. Molecule `NCCCBr` came in with a pKa (basic group) of 8.93.

`Oc1cccc(C2NCCS2)c1` (stereo not drawn) returned a pKa (basic group) of 5.2. In the case of `C[n+]1cc(S)cc2ccccc21`, the pKa (acidic group) was determined as 2.4. As to `N#CC(C#N)=NNc1ccccc1C(F)(F)F`, the pKa runs as follows: (acidic group) 5; (basic group) -0.7. Take `NCCCCc1ccccc1`: the pKa (basic group) is 10.4. `Cc1ccnc(-c2cc(C)ccn2)c1` registered a pKa (basic group) of 5.32. Still for that read-out and setting: the figure for `COc1ccc(S(=O)(=O)NCCCN2CCOCC2)c(OC)c1OC` is 6.76; for `C[NH+](C)CCC/N=C(\c1ccccc1)c1ccccc1Cl` it is 3.46. Turning to `Oc1ccc2ccncc2c1`, the pKa is, setting by setting: (acidic group) 8.88; (basic group) 5.7. As to `CN/C=[NH+]/c1cccc(-c2csc(N=C(N)N)n2)c1`, for the setting “basic group”, the pKa came out at 6.29. As to `c1ccc2c(c1)NCCN2`, the pKa (basic group) turned out to be 4.84. `CN(C)c1ccc2ccccc2c1` yielded a pKa (basic group) of 4.57.

As to `Cc1nc2ncccc2[nH]1`, the pKa (basic group) turned out to be 4.6. `Cn1c(=O)cnc2ccccc21` gave a pKa (basic group) of -1.15. As for `[O-]c1ccc(O)cc1`, the pKa (acidic group) was found to be 11.6. `CC(=O)N(C)c1cccnc1` showed a pKa (basic group) of 3.52. Consider `NCC(=O)NCC(=O)[O-]`, for which the pKa (basic group) turned out to be 8.31. `O=C(O)CCC(=O)c1ccc2ccccc2c1` came in with a pKa (acidic group) of 4.96. Turning to `[O-]c1[nH+]cncc1O`, the pKa (basic group) stood at 1.99. `NC(=S)C[NH3+]` displayed a pKa (basic group) of -8.39.

With `CCC(=O)C(CCN1CCOCC1)(c1ccccc1)c1ccccc1`, the pKa (basic group) was 6.98. Where the note is “acidic group”, `CCC[n+]1cccc2cc(O)ccc21` gave a pKa of 7.08. Where the note is “basic group”, `CC(C)SCCN` returned a pKa of 9.23. On the same count and under the same terms, the value for `CCN(CC)CCCNC(=O)/C=N/[O-]` was 10.3; that for `NNC(=O)c1ccc([NH3+])cc1` was 2.05; that for `CN(C)CCOCCN(C)C` was 9.8. On the same count and under the same terms, the figure for `CN(C)CCC(=O)C(C)(C)C` is 9.49. In turn, `S=c1[nH]c2ccccc2o1` yielded a pKa (acidic group) of 6.33.

`Oc1c(C(Nc2nc3ccccc3s2)c2ccccn2)ccc2cccnc12` (stereo not drawn) came in with a pKa (acidic group) of 10.9. `CC(C)c1ccncc1` gave a pKa (basic group) of 6.02. Same read-out and setting: the figure for `Cc1cc(-c2ccccc2)nn(C)/c1=N/CCN1CCOCC1` is 10.4. On to `CC(=O)/C(=N\O)C(C)C`, for which, for the setting “acidic group”, the pKa was 9.5.

As to `CSc1ncnc2[nH]ncc12`, the pKa reads like this: (acidic group) 9.65; (basic group) 1. Where the note is “acidic group”, `Cn1c(=O)[nH]c2c(ncn2C)c1=O` registered a pKa of 6.3. For the molecule `c1cc(N2CCCCC2)ccc1N1CCCCC1`, where the note is “basic group”, the pKa amounted to 6.5.

Molecule `Cc1ccc(OCC(=O)O)cc1` showed a pKa (acidic group) of 3.15. On the same count and under the same terms, the value for `CC(C)Oc1ccc(C(=O)O)cc1` was 4.57.

For `CC[C@]1(O)C[C@H](C)N[C@@H]2CCCC[C@H]21`, the pKa (basic group) is 10.1. Molecule `CC(=O)C(C=O)C(C)=O` came in with a pKa (acidic group) of 4.6. On the same count and under the same terms, the value for `S=C(Nc1ccc(Cl)cc1)c1ccccc1` was 10.8. Consider `Nc1nc2ccccc2o1`, for which, for the setting “basic group”, the pKa is 3.73. `Cn1c(-c2ccccc2O)[nH+]c2ccccc21` came in with a pKa (acidic group) of 5.76. For `O=c1cccc([O-])cc1O`, where the note is “acidic group”, the pKa turned out to be 9.52. In the case of `CCOC(=O)C(Cc1ccccc1)C(C)=O` (stereo not drawn), the pKa (acidic group) stood at 11.8. `O=c1oc2cc(O)ccc2cc1-c1nc2ccccc2o1` registered a pKa (acidic group) of 6.84. `Nc1ncc(S(=O)(=O)c2ccccc2)s1`: the pKa (basic group) worked out at 1.79. Regarding `Cc1ccc(S(N)(=O)=O)cc1C`, where the note is “acidic group”, the pKa is 9.62. The molecule `CN1CCN(C(=O)c2ccccc2)CC1` came in with a pKa (basic group) of 6.78. On the same count and under the same terms, the value for `[NH3+]CC(=O)NCCc1c[nH]cn1` was 6.76.

Consider `C[n+]1cccc2cc(S)ccc21`, for which, for the setting “acidic group”, the pKa is 4.12. With `CN(C)CCCC(=O)Oc1cccc([N+](=O)[O-])c1`, the pKa (basic group) worked out at 9.82.

Turning to `O=C(O)c1ccc2[nH]ccc2c1`, the pKa (acidic group) is 4.1. Molecule `NC(=O)CCc1ccncc1` registered a pKa (basic group) of 5.58. Take `c1cnc2c(c1)ccc1ccc[nH+]c12`: the pKa (basic group) amounted to 2.04.

For the setting “acidic group”, `S=C(Nc1ccc(Cl)c(Cl)c1)c1cccc(Br)c1` returned a pKa of 9.26. In turn, `NC(=O)CC(=O)c1cccnc1` yielded a pKa (basic group) of 8.61. As to `OCCc1cnc(P(c2[nH]c(CCO)c[nH+]2)c2[nH]c(CCO)c[nH+]2)[nH]1`, under “basic group”, the pKa turned out to be 5.75.

For `NC(=O)C(c1ccccc1)c1ccccn1` (stereo not drawn), where the note is “basic group”, the pKa is 3.8. Regarding `CC(C)(C)N(O)C(=O)c1ccccc1`, where the note is “acidic group”, the pKa came out at 10.1. `CC1(C)NC(C)(C)[N+](O)=C1c1ccccc1` returned a pKa (acidic group) of 2.06. `Nc1c([N+](=O)[O-])ccc2ccccc12` showed a pKa (basic group) of -1.6. For the setting “acidic group”, `NS(=O)(=O)C(F)(F)I` returned a pKa of 6.79. Under “acidic group”, `CC(=O)CC(=O)C(C)C` showed a pKa of 9.46. In turn, `Brc1ccc(-c2ncc(-c3ccccc3)o2)cc1` showed a pKa (basic group) of 0.4. On the same count and under the same terms, the value for `CSc1ccc(N)cc1Cl` was 3.38. Regarding `CCC(=O)CC(C)=O`, the pKa (acidic group) came out at 9.36. `Oc1cc2ccccc2n[nH+]1` yielded a pKa (acidic group) of 0.21. `c1cc(C2CCCN2)nc(C2CCC[NH2+]2)c1` (stereo not drawn) came in with a pKa (basic group) of 9.46. With `O=C(O)[C@@H]1CC[C@H](C(=O)O)[Se]1`, the pKa (acidic group) was 3.55. Molecule `Cc1cccc(C(=O)O)[nH+]1` came in with a pKa (acidic group) of 0.9. The same measure, in the same setting: the figure for `O=C(c1ccccc1)c1ccc([O-])[n+](O)c1` is 5.13. Same read-out and setting: the figure for `CC1(C)CC(=O)C(C=O)C(=O)C1` is 3.65.
